Literature values as cited in US20200268770A1, “PHARMACEUTICAL COMPOSITION USED FOR TREATING METABOLIC SYNDROME DISORDERS, INFECTIOUS DISEASES, AND COMPLICATIONS THEREOF” (priority 2017, published 2020).
Read-outs that look alike come from different tables or passages of the source.

Columns and labels:
[1] = test system: C57BL/6 mice fed with high fat foods
3T3-L1 cells = 3T3-L1 cells stimulated by differentiation inducers
[2] = pre-treatment, C57BL/6 mice fed with high fat foods

Row | SMILES | fasting blood glucose levels [1, 2] | hepatic lipid accumulation [1, 2] | serum triglycerides (TG) [1, 2] | size of white and brown adipocytes [1, 2] | fasting blood glucose levels ([1]; therapeutic, obese mice) | glucose tolerance ([1]; therapeutic, obese mice) | high-density lipoprotein cholesterol (HDL-c) ([1]; therapeutic, obese mice) | low-density lipoprotein cholesterol (LDL-c) ([1]; therapeutic, obese mice) | serum TG ([1]; therapeutic, obese mice) | glycated hemoglobin (after 21 days) | nitric oxide (after 21 days) | progression of diabetes (after 21 days) | serum glucose (after 21 days) | serum insulin levels (after 21 days) | antioxidant levels (in vivo) | content of thiobarbituric acid-reactive substances (in vivo) | TG synthesis (3T3-L1 cells) | lipid droplet accumulation (3T3-L1 cells)
1 | C=C(C)[C@H]1CC=C(C)CC1 [d-limonene] | lowered | prevented | lowered | decreased | reduced | reduced | increased | reduced | reduced |  |  |  |  |  |  |  |  | 
2 | C=C(C)[C@@H]1CC[C@]2(C)CC[C@]3(C)[C@H](CC[C@@H]4[C@@]5(C)CC[C@H](O)C(C)(C)[C@@H]5CC[C@]43C)[C@@H]12 [lupeol] |  |  |  |  |  |  |  |  |  | decrease | decrease | suppressed | decrease | concomitant increase | increased | decrease | strongly blocked | strongly blocked
